According to patent US7195885B2, “Hepatitis C virus assays” (Bristol-Myers Squibb Company, priority 2002, dated 2007):

Columns and labels:
[1] = system: HCV replicon cell line (NS3 protease activity); assay: HCV replicon FRET assay (NS3 protease activity as indirect measure of HCV RNA replication)
Experimental: The HCV replicon cell line was isolated from colonies as described by Lohman et al. al. (Lohman, supra) and used for all experiments.
These cell lines were maintained at 37° C., 5% CO2, 100% relative humidity in DMEM (Life Technologies #11965-084) with 10% heat inactivated calf serum (Sigma #F-2442), 100 U/ml of penicillin/streptomycin (Life Technologies #15140-122), Geneticin at 1 mg/ml (Life Technologies #10131-027). One of the cell lines which had approximately 3,000 copies of HCV replicon RNA/cell was used for development of the assay.
To perform the HCV FRET screening assay, 96-well cell culture plates were used.
The assay reagent was made as follows: 5× cell Luciferase cell culture lysis reagent from Promega (#E153A) diluted to 1× with dH2O, NaCl added to 150 mM final, the FRET peptide diluted to 20 uM final from a 2 mM stock. Cells were trypsinized, placed into each well of a 96-well plate and allowed to attach overnight. The next day, the test compounds were added to columns 1 through 10; column 11 was media only, and column 12 contained a titration of interferon as a control (1000 units for A12, B12, 100 units for C12, D12, 10 units for E12, F12 and 1 unit for G12, H12). In addition, replicon cells in A12, B12 can be replaced, if desired, with naïve Huh-7 cells as a negative background control. The plates were then placed back in the incubator.
Subsequent to addition of the test compounds described above (FRET Assay Preparation), at various times the plate was removed and Alamar Blue solution (Trek Diagnostics, #00–100) was added per well as a measure of cellular toxicity.
Compound analysis was determined by quantification of the relative HCV replicon inhibition and the relative cytotoxicity values.

[2] = system: HCV replicon cell line (NS3 protein); assay: Western analysis of NS3 protein in the HCV replicon cell line; assay type: cell-based, Hepatitis C virus
Experimental: Experiments were done in duplicate. Western analysis was performed according to the instructions for Amershams Chemiluminescence Immunology Kit (NEL105 Renaissance) using a Molecular Dynamics Storm 860 phosphoimager and associated software. The primary and secondary antibody dilutions were at 1 to 5,000. Antisera was generated by immunizing rabbits with purified NS3 protease made from an E. Coli expression vector encoding the first 181 amino acids of HCV 1a NS3 with subsequent boosts.
Bleeds were tested weekly and boosts continued until a positive signal on a control western was seen. Secondary antibody was a BioRad (#170–6515) Goat anti-Rabbit IgG HRP Conjugate. The protein samples for western analysis were from the same wells used for the FRET assay and were prepared by the addition of an equal volume of 2×SDS-PAGE buffer to the FRET assay mixture, heating and loading on a 10% gel for SDS-PAGE. Interferon alpha (IFN-α) was obtained from Sigma (#I-4276) and stored as recommended.

[3] = system: HCV replicon cell line (HCV RNA); assay: Quantitative RT-PCR of HCV RNA in the HCV replicon cell line
[4] = system: HCV replicon cell line (Huh-7); assay: Alamar Blue cytotoxicity assay step; assay type: cell-based
[5] = FIG. 6A, titration 0.1 to 1,000 units per milliliter, 96 hours of incubation
[6] = interferon titration in HCV replicon cell line

Question: With interferon-α [IFN-α] as the substance, how does the “EC50, FRET” value [1, 5] read?
Answer: The value was 2.9 units of IFN-α per milliliter.

Question: What about the “EC50, FRET assay” value [1, 6] of the same substance?
Answer: The value was 2.9 units.

Question: What about the “EC50 in IFN-α control samples of the compound plate, in words” value ([1]; random compound plate control titration 1000, 100, 10, 1 units, FIG. 7A) of the same substance?
Answer: Its value is “close to or slightly lower than the lowest concentration of IFN-α used”.

Question: And the “EC50, Western” value [2, 5]?
Answer: Its value is 1.9 units of IFN-α per milliliter.

Question: And the “EC50, western assay” value [2, 6]?
Answer: Its value is 1.9 units.

Question: What about the “EC50, RT-PCR” value [3, 5] of the same substance?
Answer: The value was 5.3 units of IFN-α per milliliter.

Question: And the “EC50, qRT-PCR assay” value [3, 6]?
Answer: The value was 5.3 units.

Question: What about the “cytotoxicity (Alamar Blue)” value ([4]; highest concentration of IFN-α, 1000 units, FIG. 7B wells A12 and B12) of the same substance?
Answer: The value was “Approximately 18%”.

Question: What about the “cytotoxicity (Alamar Blue), in words” value ([4]; lower concentrations of IFN-α (below 1000 units)) of the same substance?
Answer: Its value is “no apparent Alamar Blue staining change”.
